What all share (assay type): functional
Assay [1] deals with T1, Neuropeptides B/W receptor type 1 (Homo sapiens, UniProt P48145).
T1 sequence (P48145 whole entry): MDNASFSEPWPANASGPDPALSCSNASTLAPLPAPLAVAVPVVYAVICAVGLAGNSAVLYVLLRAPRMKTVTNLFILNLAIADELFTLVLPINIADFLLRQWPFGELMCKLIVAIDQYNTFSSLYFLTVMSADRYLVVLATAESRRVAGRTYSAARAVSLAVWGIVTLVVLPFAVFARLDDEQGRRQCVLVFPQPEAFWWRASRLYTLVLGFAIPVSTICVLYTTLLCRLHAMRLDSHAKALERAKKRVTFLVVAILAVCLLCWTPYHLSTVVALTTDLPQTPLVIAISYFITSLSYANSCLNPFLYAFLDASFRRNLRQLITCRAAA
As to the kind of experiment: human NPBW1 receptor blockade, IC50 – cell-based, fluorescence, dose response, set 5, late-stage follow-up (AID 588566).

Assay [2] concerns the target Melanin-concentrating hormone receptor 1 (Homo sapiens, UniProt Q99705). As to the kind of experiment: Late-stage fluorescence-based counterscreen for antagonists of the G-protein coupled receptor 7 (GPR7): cell-based dose response assay to identify antagonists of the melanin-concentrating hormone receptor 1 (MCHR1) Set 5. For orientation: Counterscreens check selectivity or assay interference.

The target of assay [3] is T2, High affinity choline transporter 1 (Homo sapiens, UniProt Q9GZV3).
T2 sequence (Q9GZV3 whole entry): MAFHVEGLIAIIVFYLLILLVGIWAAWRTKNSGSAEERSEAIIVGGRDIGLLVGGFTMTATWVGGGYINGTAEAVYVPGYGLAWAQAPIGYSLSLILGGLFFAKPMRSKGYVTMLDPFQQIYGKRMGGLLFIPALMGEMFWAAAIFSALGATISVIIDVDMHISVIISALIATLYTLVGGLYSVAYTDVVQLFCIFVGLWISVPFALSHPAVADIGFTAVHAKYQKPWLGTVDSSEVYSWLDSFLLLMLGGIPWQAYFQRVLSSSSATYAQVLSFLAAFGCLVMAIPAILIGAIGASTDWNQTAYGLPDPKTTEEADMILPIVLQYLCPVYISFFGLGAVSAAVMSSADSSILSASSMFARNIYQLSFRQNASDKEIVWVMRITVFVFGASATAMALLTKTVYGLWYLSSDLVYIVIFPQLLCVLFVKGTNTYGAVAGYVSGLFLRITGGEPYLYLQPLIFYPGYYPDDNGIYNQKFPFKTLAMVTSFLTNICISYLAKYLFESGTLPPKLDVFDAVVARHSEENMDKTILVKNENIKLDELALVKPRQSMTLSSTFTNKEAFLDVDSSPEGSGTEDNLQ
As to the kind of experiment: human choline transporter blockers, potency – cell-based, 5-point CRC, membrane potential dye, dose response (AID 504840).

Assay [4] has as its target T2, High affinity choline transporter 1. As to the kind of experiment: human choline transporter blockers, potency – cell-based, 10-point CRC, membrane potential dye, dose response (AID 588401).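 Note: membrane potential dye fluorescence of choline-evoked depolarization via CHT.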
A short description of assay [5]: SAR analysis of small molecule activators of Apaf-1 using a LZ-Caspase-9/Caspase-3 Fluorescent Selectivity assay - Set 2. Particulars: read-out: EC50_Mean.
Assay [6] deals with T3, Apoptotic protease-activating factor 1 (Homo sapiens, UniProt O14727).
T3 sequence (O14727 whole entry): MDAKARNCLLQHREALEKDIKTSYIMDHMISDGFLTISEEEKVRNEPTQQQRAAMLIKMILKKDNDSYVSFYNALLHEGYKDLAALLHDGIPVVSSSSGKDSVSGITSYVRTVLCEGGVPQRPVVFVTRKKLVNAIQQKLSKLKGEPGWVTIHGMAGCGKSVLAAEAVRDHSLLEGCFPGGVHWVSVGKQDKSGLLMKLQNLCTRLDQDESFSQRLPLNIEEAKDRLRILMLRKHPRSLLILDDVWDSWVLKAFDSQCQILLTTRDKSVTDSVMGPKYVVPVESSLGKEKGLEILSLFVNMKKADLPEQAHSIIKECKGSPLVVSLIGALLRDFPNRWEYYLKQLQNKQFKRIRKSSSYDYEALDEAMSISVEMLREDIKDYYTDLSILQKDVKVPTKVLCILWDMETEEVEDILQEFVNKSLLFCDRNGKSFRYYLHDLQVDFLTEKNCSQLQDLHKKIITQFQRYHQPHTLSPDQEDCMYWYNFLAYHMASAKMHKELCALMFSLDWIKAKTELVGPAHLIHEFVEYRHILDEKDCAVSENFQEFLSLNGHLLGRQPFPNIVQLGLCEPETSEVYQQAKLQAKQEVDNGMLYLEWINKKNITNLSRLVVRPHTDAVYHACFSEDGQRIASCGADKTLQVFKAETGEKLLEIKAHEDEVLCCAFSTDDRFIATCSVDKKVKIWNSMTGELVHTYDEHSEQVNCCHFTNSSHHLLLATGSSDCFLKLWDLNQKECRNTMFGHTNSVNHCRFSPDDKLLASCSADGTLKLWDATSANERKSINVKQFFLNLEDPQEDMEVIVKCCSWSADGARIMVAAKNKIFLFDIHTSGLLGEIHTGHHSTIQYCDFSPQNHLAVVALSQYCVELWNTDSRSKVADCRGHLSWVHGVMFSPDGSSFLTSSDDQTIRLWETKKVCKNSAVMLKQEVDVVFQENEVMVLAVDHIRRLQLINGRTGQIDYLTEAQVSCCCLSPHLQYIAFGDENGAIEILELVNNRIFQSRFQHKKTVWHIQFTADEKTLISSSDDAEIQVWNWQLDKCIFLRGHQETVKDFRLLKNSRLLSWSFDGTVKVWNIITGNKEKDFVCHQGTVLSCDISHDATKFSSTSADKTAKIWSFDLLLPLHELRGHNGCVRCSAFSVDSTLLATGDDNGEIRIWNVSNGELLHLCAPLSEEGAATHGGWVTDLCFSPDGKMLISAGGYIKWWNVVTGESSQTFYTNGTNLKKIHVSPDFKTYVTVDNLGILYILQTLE
As to the kind of experiment: SAR analysis of small molecule Activators of Apaf-1 in a Fluorescent assay - set 2. Particulars: read-out: EC50_Mean.

SMILES strings stand for the structures. The source made the active and inactive calls. Bounds are passed on as bounds.

Sequence of Melanin-concentrating hormone receptor 1 (Q99705 whole entry): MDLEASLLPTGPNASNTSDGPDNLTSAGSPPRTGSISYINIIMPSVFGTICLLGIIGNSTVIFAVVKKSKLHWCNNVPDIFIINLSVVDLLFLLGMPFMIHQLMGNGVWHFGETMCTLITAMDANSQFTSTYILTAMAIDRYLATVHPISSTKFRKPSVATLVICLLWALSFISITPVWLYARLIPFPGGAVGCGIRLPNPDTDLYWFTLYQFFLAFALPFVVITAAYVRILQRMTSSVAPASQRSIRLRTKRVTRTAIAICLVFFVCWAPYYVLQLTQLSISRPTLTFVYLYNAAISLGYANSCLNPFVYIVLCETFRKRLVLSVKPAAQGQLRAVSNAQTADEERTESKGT

For the compound `COc1c(F)cc(Oc2c(Cl)cnn(Cc3cccc4ccccc34)c2=O)cc1Cl`, the IC50 in assay [1] is 5.05 µM (active); in assay [2], 11.2 µM (inactive).
As to `Cc1nnc(NCc2cccc(Cl)c2)c2ccccc12`, the figures for the IC50 in assay [3] and in assay [4] were 9.8 µM (active) and 4.74 µM (active), respectively.
As for `CC(CNC(C)c1ccccc1)C(=O)O` (stereo unspecified), the results for the EC50 in assay [5] and in assay [6] were > 100 µM (inactive) and 80.6 µM (active), respectively.

A word on the IC50: it is the midpoint of a concentration-inhibition curve.
